# In patent US4691046A, “Butanedioic acid mono [(2-dimethylamino] ethyl ester)succinate” (Institut Organicheskoi Khimii Ordena Lenina I Ordena …, priority 1986, dated 1987):
# What was measured:
# Pyruvatedehydrogenase = assay: Activity of pyruvatedehydrogenase in myocardium upon low-temperature treatment; assay type: in vivo, mice; details: 2.5 hours at -14° C.; 80 mg/kg (invention) or 64 mg/kg (ester); control 56.6 ± 1.1
# Protocol: (§2) The preparations were administered one hour before the standard low-temperature treatment (-14° C.) in doses of 80 mg/kg of the compound according to the present invention and 64 mg/kg of the prior art compound-butanedioic acid mono[(2-dimethylamino)-ethyl ester].
# Glutamatedehydrogenase = assay: Activity of glutamatedehydrogenase in myocardium upon low-temperature treatment; assay type: in vivo, mice; details: 2.5 hours at -14° C.; 80 mg/kg (invention) or 64 mg/kg (ester); control 68.8 ± 1.5
# Protocol: as §2
# NADH2 --dehydrogenase = assay: Activity of NADH2-dehydrogenase in myocardium upon low-temperature treatment; assay type: in vivo, mice; details: 2.5 hours at -14° C.; 80 mg/kg (invention) or 64 mg/kg (ester); control 69.8 ± 1.5
# Protocol: as §2
# [1] = Survival of mice on acute cooling; assay type: in vivo
# Protocol: The activity of the compound according to the present invention was studied in experiments on animals. The effectivemess of the compound according to the present invention was studied for resistance against an acute cold effect in comparison with conventional preparations such as butanedioic acid mono[(2-dimethylamino)ethyl ester] and sodium succinate.
# The experiments were carried out on male mice (tetrahybdrids) with a body mass of 18-20 g which were placed into a cold chamber at a temperature of -15t to -17° C. in separate plastic cages slightly limiting their activity. […] The preparations were administered intraperiotoneally 1 hour before the cold effect the control animals were administered with a physiological solution.
# [2] = test system: NAD-Ph--H2 --dehydrogenase; assay: Activity of NAD-Ph-H2-dehydrogenase in myocardium upon low-temperature treatment; assay type: in vivo, mice; details: 2.5 hours at -14° C.; 80 mg/kg (invention) or 64 mg/kg (ester); control 72.1 ± 1.4
# Protocol: as §2
# [3] = Maximum duration of mice lifespan upon testing cold treatment (Le Blanc adaptation procedure); assay type: in vivo
# Protocol: (§1) To elucidate the effect of the compound according to the present invention on the adaptation phenomenon, experiments on male mice with a body mass of 18-20 g were carried out in conformity with the Le Blanc procedure according to which the mice were placed into a cold chamber (at -17° C.) for 10 minutes ever hour over the period of 9-10 hours. After one day the maximum lifespan of the mice at -17° C. was assessed along with the content of glucose in blood and of glycogen in organs upon a predetermined cold treatment (2.5 hours a -14° C.). The compound according to the present invention and butanedioic acid mono[(2-dimethylamino)-ethyl ester] (in doses of 80 and 64 mg/kg respectively) were introduced immediately after a series of short-time cold effects. In a number of experiments the compound according to the present invention was administered 1 hour prior to the testing (2.5 h) cold effect.
# Isocitratedehydrogenase = assay: Activity of isocitratedehydrogenase in myocardium upon low-temperature treatment; assay type: in vivo, mice; details: 2.5 hours at -14° C.; 80 mg/kg (invention) or 64 mg/kg (ester); control 49.5 ± 1.2
# Protocol: as §2
# [4] = test system: Glucose-6-phosphatedehydrogenase; assay: Activity of glucose-6-phosphatedehydrogenase in myocardium upon low-temperature treatment; assay type: in vivo, mice; details: 2.5 hours at -14° C.; 80 mg/kg (invention) or 64 mg/kg (ester); control 57.3 ± 1.3
# Protocol: as §2
# [5] = Biochemical substrates in mice upon preset (2.5 hours) low-temperature treatment; details: 2.5 hours at -14° C.
# Protocol: as §2
# Succinatedehydrogenase = assay: Activity of succinatedehydrogenase in myocardium upon low-temperature treatment; assay type: in vivo, mice; details: 2.5 hours at -14° C.; 80 mg/kg (invention) or 64 mg/kg (ester); control 72.3 ± 1.6
# Protocol: as §2
# [6] = Blood glucose and organ glycogen upon predetermined (2.5 h) cold treatment (adaptation experiment); assay type: in vivo, mice; details: 2.5 h at -14° C.; for Glycogen, heart: control 1.7 ± 0.2; for Glycogen, liver: control 6.7 ± 0.4; for Blood glucose: control 37 ± 6
# Protocol: as §1
# [7] = Stresso-protective activity, motion stress in slowly rotating drum for 48 hours; assay type: in vivo, rats; details: 48 h motion stress
# Protocol: In evaluation of the stresso-protective activity of the compound according to the present invention as a model use was made of a procedure of depriving rats of sleep, meals and water in a slowly rotating drum (at the speed of 0.2 km/h).
# The experiments were carried out on 42 nondescript male rats. In parallel experiments the antistress activity of butanedioic acid mono[(2-dimethylamino)ethyl ester] was studied; as the reference prepartion use was made of the prior art tranquilizer--diazepam which was used in the experiments for this very indication.
# 4 groups of animals were tested in parallel. Groups I and II were placed for 48 hours into a slowly rotating drum, groups III and IV were under normal conditions and were deprived only of meals and water. The compound according to the present invention and butanedioic acid mono[(2-dimethylamino)ethyl ester] were administered intraperitoneally in the dose of 10 mg/kg four times (2 times a day) in the volume of 2.5 ml/kg under the conditions of motion stress (Group I of the animals) and under normal conditions (Group III of animals). The control animals--Group II (active control) and Group IV (passive control) were given a physiological solution. The efficiency of the compound according to the present invention, of butanedioic acid mono[(2-dimethylamino)ethyl ester] and of diazepam was estimated on the basis of a set of characteristics showing the functional activity of the central nervous system, physical fitness and development of basic symptoms of the stress-syndrome.
# The residence of control rats in a slowly-rotating drum over 48 hours results in a noticeable deterioration of all the studied characteristics, especially those of higher nervous activity (learning) and development of stress-syndrome. The state of control animals was characterized by lowering of the overall behavioural activity as determined by the "open-field" test (37±15%) with reference to the passive control level, by a reduction in the speed of development of a conventional avoiding response in an aqueous labyrinth (58±15%), by an increase in the number of mistakes during the teaching time (175±25%), lowering of the ultimate physical endurance as determined by the swimming-with-load test (the load is equal to 10% by mass of the body (70±17%), adrenal hypertrophy (146±16%), thymus atrophy (49±9%) and formation of ulcers on the stomach mucous membrane (5.25±1.0%).
# [8] = adaptation + preparation 1 hour before the testing effect
# [9] = adaptation + preparation immediately after adaptation, 80 mg/kg (invention) or 64 mg/kg (ester)
smiles,measurement,setting,value
"CN(C)CCOC(=O)CCC(=O)O [Compound of this invention, butanedioic acid mono[(2-dimethylamino)ethyl ester]succinate]",Activity of pyruvatedehydrogenase in myocardium,Pyruvatedehydrogenase,68.9 ± 1.3 relative units
same,Activity of glutamatedehydrogenase in myocardium,Glutamatedehydrogenase,78.3 ± 1.7 relative units
same,Activity of NADH2-dehydrogenase in myocardium,NADH2 --dehydrogenase,73.4 ± 2.0 relative units
same,"Survival, %, 1 hour","[1]; 1 hour of cold at -15 to -17° C., i.p. 1 hour before, 80 mg/kg (invention), 64 mg/kg (ester), 17 mg/kg (sodium succinate)",100%
same,"Survival, %, 2 hours","[1]; 2 hours of cold at -15 to -17° C., i.p. 1 hour before, 80 mg/kg (invention), 64 mg/kg (ester), 17 mg/kg (sodium succinate)",100%
same,"Survival, %, 3 hours","[1]; 3 hours of cold at -15 to -17° C., i.p. 1 hour before, 80 mg/kg (invention), 64 mg/kg (ester), 17 mg/kg (sodium succinate)",100%
same,"Survival, %, 4 hours","[1]; 4 hours of cold at -15 to -17° C., i.p. 1 hour before, 80 mg/kg (invention), 64 mg/kg (ester), 17 mg/kg (sodium succinate)",90%
same,"Survival, %, 5 hours","[1]; 5 hours of cold at -15 to -17° C., i.p. 1 hour before, 80 mg/kg (invention), 64 mg/kg (ester), 17 mg/kg (sodium succinate)",70%
same,"Survival, %, 6 hours","[1]; 6 hours of cold at -15 to -17° C., i.p. 1 hour before, 80 mg/kg (invention), 64 mg/kg (ester), 17 mg/kg (sodium succinate)",70%
same,protective effect on survival at high dose,[1]; doses above 300 mg/kg,less pronounced
same,Activity of NAD-Ph-H2-dehydrogenase in myocardium,[2],85.9 ± 1.7 relative units
same,"Lifespan in hours (at -17° C.), preparation without adaptation","[3]; no adaptation, intact animals 3.4 ± 0.4",7.8 ± 0.3 h
same,"Lifespan in hours (at -17° C.), preliminary adaptation + preparation","[3]; with preliminary adaptation, 80 mg/kg (invention) or 64 mg/kg (ester), adaptation alone 6.0 ± 0.3, listed as compound of the present invention",10.3 ± 0.6 h
same,Activity of isocitratedehydrogenase in myocardium,Isocitratedehydrogenase,60.4 ± 1.6 relative units
same,Activity of glucose-6-phosphatedehydrogenase in myocardium,[4],67.4 ± 1.5 relative units
same,Liver glycogen,"[5]; 1 hour after 80 mg/kg (invention) or 64 mg/kg (ester), control 8.1 ± 0.6, intact 35.2 ± 4.5",9.8 ± 1.2 mg/kg
same,Blood glucose,"[5]; 1 hour after 80 mg/kg (invention) or 64 mg/kg (ester), control 42 ± 4, intact 79 ± 3",80 ± 4 mg. %
same,Creatine phosphate,"[5]; myocardium, 1 hour after 80 mg/kg (invention) or 64 mg/kg (ester), control 1.2 ± 0.08, intact 3.7 ± 0.3",2.3 ± 0.1 μm/g
same,Adenosine monophosphate,"[5]; myocardium, 1 hour after 80 mg/kg, control 0.45 ± 0.01, intact 0.51 ± 0.03",0.32 ± 0.02 μm/g
same,Adenosine diphosphate,"[5]; myocardium, 1 hour after 80 mg/kg, control 0.49 ± 0.02, intact 0.78 ± 0.03",0.86 ± 0.04 μm/g
same,Adenosine triphosphoric acid,"[5]; myocardium, 1 hour after 80 mg/kg, control 1.5 ± 0.1, intact 2.2 ± 0.3",1.9 ± 0.2 μm/g
same,Activity of succinatedehydrogenase in myocardium,Succinatedehydrogenase,90.2 ± 1.8 relative units
same,"Glycogen, heart",[6]; [8],2.6 ± 0.4 mg/g
same,"Glycogen, liver",[6]; [8],11.7 ± 2.4 mg/g
same,Blood glucose,[6]; [8],78 ± 6 mg. %
same,"Glycogen, heart",[6]; [9],2.9 ± 0.2 mg/g
same,"Glycogen, liver",[6]; [9],18.2 ± 2.1 mg/g
same,Blood glucose,[6]; [9],88 ± 2 mg. %
same,formation of ulcers on the stomach mucous membrane,[7],4.8±1.5%
same,general behavioural activity compared with diazepam,[7]; in words,substantially higher general behavioural activity
same,Weight coefficient of thymus,"[7]; 10 mg/kg i.p. four times (invention, ester), control 0.95 ± 0.18, listed as compound of the present invention, 10 mg/kg",1.25 g/kg of the initial body mass
same,Weight coefficient of adrenal glands,"[7]; 10 mg/kg i.p. four times (invention, ester), control 1.246 ± 0.028, listed as compound of the present invention, 10 mg/kg",1.83 g/kg of the initial body mass
same,Number of attempts till reaching the learning criterion (water labyrinth),"[7]; 10 mg/kg i.p. four times (invention, ester), control 4.75 ± 0.5, listed as compound of the present invention, 10 mg/kg",2.75
same,Number of ulcers on the stomach mucous membrane,"[7]; 10 mg/kg i.p. four times (invention, ester), control 5.25 ± 1.0, listed as compound of the present invention, 10 mg/kg",2.5
same,Duration of swimming,"[7]; 10 mg/kg i.p. four times (invention, ester), control 244 ± 26, listed as compound of the present invention, 10 mg/kg",499 s
same,total behavioural activity,"[7]; open-field test, stressed control 37±15% of passive control",85±10%
same,higher nervous activity (protection),"[7]; stressed control 58±15% (avoiding response, aqueous labyrinth)",100±9%
same,physical endurance,"[7]; swimming-with-load test, stressed control 70±17%",143±28%
